# Experimental data from US12502371B2, “Drug for treating and preventing dementia” (Numan Labo LLC, priority 2019, dated 2025).
# Tested on: mice
# Assay: Y-maze test in mice given scopolamine
# Type: in vivo, mouse
# Settings: based on total motor activity and correct alternation rate, scopolamine-treated mice
# Method: The Y-maze test was performed in mice divided into three types A, B, and C. The mice were placed in a Y-maze and allowed to move freely for 6 minutes. The sequence of entries into each arm and the total number of arm entries were measured since mice have the habit of always choosing a new arm of the maze. In order to evaluate the degree of memory impairment, the correct alternation rate was calculated based on the percentage of correct arm entries out of the total number of arm entries. Mice of types A, B, and C received drugs as shown below. […] The total number of entries and percentage of correct alternations were analyzed based on data obtained from the Y-maze test. Four mice from each type were examined. The following animals were used in the experiments. • Species: mouse • Strain: Crj:ICR • Sex: male • Age in weeks: 4
compound,measurement,value
"COc1ccccc1OCC(O)COC(N)=O (stereo not shown) [Methocarbamol, methocarbamol]",Effect on cognitive function (in words),had the effect of improving cognitive function
